Holding throughout (format): physicochemical
Data set [1] can be described thus: Dynamic vapor sorption (DVS) moisture sorption isotherm, Hiden IGA-sorp. The note with it: for hygroscopicity (in words): tosylate. The protocol: DVS moisture sorption isotherms were generated using a Hiden Analytical IGA-sorp moisture sorption analyzer. Samples were run as received without pre-analysis drying. Each sample was equilibrated between about 30 and 120 minutes at each relative humidity (RH) step. Temperature was fixed at about 25° C. and the relative humidity steps (0 to 95% RH) were in 5-10% increments. Sample sizes ranged from 3 to 30 mg. After DVS measurement, XRPD was measured in order to check the solid form. Dynamic Vapor sorption (DVS) moisture sorption isotherms were generated using IGA-sorp moisture sorption analyzer (Hiden Analytical). Sample measurements were run without drying before analyses. XRPD was measured in order to check any changes of the solid form after the moisture sorption/desorption. The measurement condition is shown below: • Time at each RH steps: From 30 to 120 minutes • Relative humidity steps: 5 or 10% steps • Temperature: 25° C.

The nature of data set [2]: Solubility of Compound 1 Tosylate in solvents. The procedure: Considering the formation of the genotoxic impurities with alcohol, water was selected as the solvent and acetone as the anti-solvent. The solubility in the water-acetone binary solvent system indicates the feasibility for crystallization in this solvent system. Further solubility was also measured to help define the operation conditions.

Data set [3] can be described thus: Differential scanning calorimetry (DSC). The note with it: sealed pan, 10° C./min. The procedure:
DSC chart was obtained using a TA Instruments DSC Q1000 differential scanning calorimeter. Each sample was analyzed in a crimped pan with a pinhole, heated under a nitrogen purge at a rate of 10° C./min, from 10° C. to 250° C. or 300° C.
Differential Scanning Calorimeter (DSC) chart was obtained by DSC Q1000 differential scanning calorimeter (TA Instruments). Each sample was analyzed in a crimped pan with a pinhole. The measurement condition is shown below: • Atmosphere: Nitrogen • Elevated temperature rate: 10° C./min • Temperature range: From 10° C. to 250 or 300° C.
All DSC analyses were performed using TA Instruments Q100 differential scanning calorimeter. Lots 1-3 were analyzed in a sealed pan. Each sample was heated under a 50 mL/min nitrogen purge at a heating rate of 10° C./min, from a starting temperature of 25° C. up to a final temperature of 300° C. Sample size ranged from […].

Where [4] appears, read: Lot 1, recrystallized from water/acetone.
[5] abbreviates: Lot 2, recrystallized from water/acetone.
Setting [6] is: Lot 3, recrystallized from water/acetone.

Data on 1 molecule can be found in patent US20250276980A1, “SALTS OF A HETEROCYCLIC COMPOUND AND CRYSTALLINE FORMS, PROCESSES FOR PREPARING, THERAPEUTIC USES, AND PHARMACEUTICAL COMPOSITIONS THEREOF” (Sunovion Pharmaceuticals Inc., priority 2020, published 2025).

On to `CNC[C@@H]1OCCn2nc3ccccc3c21.Cc1ccc(S(=O)(=O)O)cc1` [Compound 1 Tosylate, (S)-1-(3,4-dihydro-1H-[1,4]oxazino[4,3-b]indazol-1-yl)-N-methylmethanamine tosylate], for which the “weight gain at 95% RH” value in data set [1] (about 25° C., 95% RH) is “about 1%”. Besides, the figures for the “hygroscopicity (in words)” value in data set [1] (listed as Tosylate) and in data set [1] (listed as tosylate) were “less hygroscopicity” and “low hygroscopicity”, respectively. For the same molecule, in data set [2], the “solubility (in words)” value is “decent solubility in methanol and water”. Further, the “DSC Onset” value in data set [3] (setting [4]) came to 240.5 °C; in data set [3] (setting [5]), 240.2 °C; in data set [3] (setting [6]) it was 239.7 °C. Moreover, the “DSC Peak” value is 241.9 °C in data set [3] (setting [4]), 241.7 °C in data set [3] (setting [5]) and 241.4 °C in data set [3] (setting [6]). For the same molecule, the “DSC ΔHf” value in data set [3] (setting [4]) came to 122 J/g; in data set [3] (setting [5]), 113 J/g; in data set [3] (setting [6]) it was 123 J/g.
